Among the data in patent US20240124410A1, “SMALL MOLECULES AND THEIR USE AS MALT1 INHIBITORS” (University of Pittsburgh - Of the Commonwealth System of …, priority 2021, published 2024) are IC50 values, retold here.

The test concerns the target T1, BCL10-MALT1 interaction (Homo sapiens, UniProt Q9UDY8).
T1 construct: analyte a purified recombinant MALT1 fragment (DD+Ig1-2, Sumo-tagged Ig1-2 or GB-tagged DD)
T1 sequence (Q9UDY8 1-824): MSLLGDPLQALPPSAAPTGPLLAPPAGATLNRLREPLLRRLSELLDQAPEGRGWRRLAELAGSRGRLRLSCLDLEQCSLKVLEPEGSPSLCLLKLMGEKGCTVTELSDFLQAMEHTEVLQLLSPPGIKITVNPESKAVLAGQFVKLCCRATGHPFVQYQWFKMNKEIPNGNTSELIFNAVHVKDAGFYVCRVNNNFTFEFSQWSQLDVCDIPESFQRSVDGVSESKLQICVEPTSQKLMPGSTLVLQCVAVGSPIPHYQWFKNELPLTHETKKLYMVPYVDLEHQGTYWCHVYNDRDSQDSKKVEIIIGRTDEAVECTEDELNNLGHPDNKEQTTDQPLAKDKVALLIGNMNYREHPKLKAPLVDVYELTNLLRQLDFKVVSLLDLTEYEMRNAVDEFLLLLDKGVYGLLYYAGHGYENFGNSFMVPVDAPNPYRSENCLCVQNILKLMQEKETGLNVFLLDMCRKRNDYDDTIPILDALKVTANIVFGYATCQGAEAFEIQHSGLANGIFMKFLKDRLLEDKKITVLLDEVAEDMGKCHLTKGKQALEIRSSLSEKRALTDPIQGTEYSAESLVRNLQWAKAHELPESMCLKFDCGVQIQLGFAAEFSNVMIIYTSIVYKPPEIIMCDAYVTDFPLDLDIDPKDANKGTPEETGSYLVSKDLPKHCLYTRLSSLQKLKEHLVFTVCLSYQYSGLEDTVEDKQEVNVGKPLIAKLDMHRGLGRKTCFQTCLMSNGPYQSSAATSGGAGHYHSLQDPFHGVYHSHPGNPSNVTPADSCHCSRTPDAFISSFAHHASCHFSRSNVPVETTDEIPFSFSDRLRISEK
T1 sequence (O95999 1-233 partner): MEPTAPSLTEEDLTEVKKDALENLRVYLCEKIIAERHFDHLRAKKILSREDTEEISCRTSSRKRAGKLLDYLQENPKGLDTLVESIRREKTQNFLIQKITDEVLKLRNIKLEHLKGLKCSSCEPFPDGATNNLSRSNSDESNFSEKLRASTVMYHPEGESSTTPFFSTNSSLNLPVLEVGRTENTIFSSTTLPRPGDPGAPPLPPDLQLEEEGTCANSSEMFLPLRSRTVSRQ
Nature of the test: SPR analysis of disruption of the BCL10-MALT1 interaction, dose-response (FIG. 2E); Biacore 2000, full-length Bcl10 (GST-tagged recombinant human, Abnova H00008915-P01) immobilized on sensor chip, MALT1 protein passed over. The class given is binding. An excerpt:
FIG. 2. In silico screening identifies small molecules targeting the predicted BCL10-binding groove within MALT1 (Ig1-2). (A) We performed a structure-guided in silico screen of 3 million compounds, using the LibDock program from Discovery Studio 3.5, in order to identify candidate molecules that could potentially fit within the identified groove in the MALT1 Ig1-2 domain. Lipinski's rule of five filters (LipinskiRo5) were applied to enrich for compounds with drug-like properties. Potential compound hits were then screened for their ability to disrupt the MALT1-BCL10 interaction using SPR analysis. 9 candidate compounds were then subjected to a second, ELISA-based MALT1-BCL10 interaction assay, identifying 2 compounds that could disrupt the interaction in both SPR and ELISA assays. M1i-124 and M1i-1255 are the two compounds identified to disrupt the BCL10-MALT1 interaction. […]
The LibDock program from Discovery Studio 3.5 was used to perform a structure-guided in silico screen of 3 million compounds to identify candidate molecules that could potentially fit within the identified groove of MALT1 Igl-Ig2 domain, found to be critical for BCL10-MALT1 interaction. […] Top hits were further evaluated for their potential to disrupt the BCL10-MALT1 interaction through secondary SPR and ELISA-based assays as described below. […]

For `O=S(=O)(NCc1ccc2c(c1)OCO2)c1ccc(Cc2ccc(S(=O)(=O)NCc3ccc4c(c3)OCO4)cc2)cc1` [M1i-124], the IC50 is 22 µM.
